Measured values published in ChEMBL document CHEMBL1201862, “PubChem BioAssay data set” (2004).
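These data come from cells grown in 96-well plates and exposed to compound for 48 hours at five concentrations. GI50 = concentration required for 50% inhibition of growth.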 Active and inactive are the calls of the source. No stated cut-off is given here; in the data, active = GI50 up to about 1.1 µM and inactive = higher.

How the values were obtained:
Test in all cases: growth of human tumour cells (NCI), 48 h
786-0 = test system: 786-0
A498 = test system: A498
A549 = test system: A549
ACHN = test system: ACHN
BT-549 = test system: BT-549
CAKI-1 = test system: CAKI-1
CCRF-CEM = test system: CCRF-CEM
COLO 205 = test system: COLO 205
DU-145 = test system: DU-145
EKVX = test system: EKVX
HCC 2998 = test system: HCC 2998
HCT-116 = test system: HCT-116
HCT-15 = test system: HCT-15
HL-60 = test system: HL-60
HOP-62 = test system: HOP-62
HOP-92 = test system: HOP-92
HT-29 = test system: HT-29
Hs-578T = test system: Hs-578T
IGROV-1 = test system: IGROV-1
K562 = test system: K562
KM12 = test system: KM12
LOX IMVI = test system: LOX IMVI
MCF7 = test system: MCF7
MDA-MB-231 = test system: MDA-MB-231
MDA-MB-435 = test system: MDA-MB-435
MDA-N = test system: MDA-N
MOLT-4 = test system: MOLT-4
NCI-H23 = test system: NCI-H23
NCI-H460 = test system: NCI-H460
NCI-H522 = test system: NCI-H522
NCI/ADR-RES = test system: NCI/ADR-RES
OVCAR-3 = test system: OVCAR-3
OVCAR-4 = test system: OVCAR-4
OVCAR-5 = test system: OVCAR-5
OVCAR-8 = test system: OVCAR-8
PC-3 = test system: PC-3
RPMI-8226 = test system: RPMI-8226
SF-268 = test system: SF-268
SF-295 = test system: SF-295
SF-539 = test system: SF-539
SK-MEL-28 = test system: SK-MEL-28
SK-MEL-2 = test system: SK-MEL-2
SK-MEL-5 = test system: SK-MEL-5
SK-OV-3 = test system: SK-OV-3
SN12C = test system: SN12C
SNB-19 = test system: SNB-19
SR = test system: SR
SW-620 = test system: SW-620
T47D = test system: T47D
TK-10 = test system: TK-10
U-251 = test system: U-251
UACC-257 = test system: UACC-257
UACC-62 = test system: UACC-62
UO-31 = test system: UO-31
M14 = test system: M14
NCI-H226 = test system: NCI-H226
SNB-75 = test system: SNB-75
RXF 393 = test system: RXF 393
Malme-3M = test system: Malme-3M

Measured: GI50

CCCCCCC(CCl)c1sc(-c2csc(CCNC(=O)OC(C)(C)C)n2)nc1C(=O)OC (stereo not drawn)
inactive: 786-0 19.3 µM | A498 28.8 µM | A549 26.4 µM | ACHN 23.3 µM | BT-549 18.5 µM | CAKI-1 29 µM | CCRF-CEM 17.2 µM | COLO 205 35.6 µM | DU-145 33.7 µM | EKVX 26.6 µM | HCC 2998 22.7 µM | HCT-116 15.5 µM | HL-60 17.3 µM | HOP-62 39.8 µM | HOP-92 40.8 µM | HT-29 20.6 µM | Hs-578T 16.2 µM | IGROV-1 30.2 µM | K562 13.5 µM | KM12 17.8 µM | LOX IMVI 13.2 µM | MCF7 11 µM | MDA-MB-231 26.9 µM | MDA-MB-435 12.5 µM | MDA-N 26.7 µM | MOLT-4 4.58 µM | NCI-H23 15.3 µM | NCI-H460 18.2 µM | NCI-H522 22 µM | NCI/ADR-RES 2.32 µM | OVCAR-3 21.9 µM | OVCAR-4 9.98 µM | OVCAR-5 32.1 µM | OVCAR-8 24.6 µM | PC-3 15.9 µM | RPMI-8226 9.68 µM | SF-268 20.3 µM | SF-295 32.2 µM | SF-539 21.4 µM | SK-MEL-28 28.6 µM | SK-MEL-2 11.7 µM | SK-MEL-5 4.37 µM | SK-OV-3 19.1 µM | SN12C 19.2 µM | SNB-19 40.6 µM | SR 3.94 µM | SW-620 36 µM | T47D 3.53 µM | TK-10 20.4 µM | U-251 16.2 µM | UACC-257 27.1 µM | UACC-62 13.8 µM | UO-31 14.9 µM
14.1 µM: HCT-15

CS(=O)(=O)OCC1OC(n2ccc(NC(=O)c3ccccc3)nc2=O)CC1OS(C)(=O)=O (stereo not drawn)
inactive: 786-0 > 100 µM | A498 > 100 µM | A549 > 100 µM | ACHN > 100 µM | BT-549 > 100 µM | CAKI-1 > 100 µM | CCRF-CEM > 100 µM | COLO 205 > 100 µM | DU-145 > 100 µM | EKVX > 100 µM | HCT-116 > 100 µM | HL-60 > 100 µM | HOP-62 > 100 µM | HT-29 > 100 µM | Hs-578T > 100 µM | IGROV-1 > 100 µM | K562 > 100 µM | KM12 > 100 µM | LOX IMVI > 100 µM | M14 > 100 µM | MCF7 > 100 µM | MDA-MB-231 > 100 µM | MDA-MB-435 > 100 µM | MDA-N > 100 µM | MOLT-4 > 100 µM | NCI-H226 > 100 µM | NCI-H23 > 100 µM | NCI-H460 > 100 µM | NCI-H522 > 100 µM | NCI/ADR-RES > 100 µM | OVCAR-3 > 100 µM | OVCAR-4 > 100 µM | OVCAR-5 > 100 µM | OVCAR-8 > 100 µM | PC-3 > 100 µM | RPMI-8226 > 100 µM | SF-268 > 100 µM | SF-295 > 100 µM | SF-539 > 100 µM | SK-MEL-28 > 100 µM | SK-MEL-2 > 100 µM | SK-MEL-5 > 100 µM | SK-OV-3 > 100 µM | SN12C > 100 µM | SNB-19 > 100 µM | SNB-75 > 100 µM | SR > 100 µM | SW-620 > 100 µM | T47D > 100 µM | TK-10 > 100 µM | U-251 > 100 µM | UACC-257 > 100 µM | UACC-62 > 100 µM | UO-31 > 10 µM
> 100 µM: HCT-15

Oc1nc2c(c(-c3ccccc3Cl)n1)COC/C2=C\c1ccccc1Cl
> 100 µM: HCT-15
inactive: 786-0 > 100 µM | A498 > 100 µM | ACHN > 100 µM | BT-549 > 100 µM | CAKI-1 > 100 µM | CCRF-CEM 49.3 µM | COLO 205 > 100 µM | DU-145 > 100 µM | EKVX 25.6 µM | HCC 2998 > 100 µM | HCT-116 > 100 µM | HL-60 71.4 µM | HOP-62 > 100 µM | HOP-92 > 100 µM | HT-29 > 100 µM | Hs-578T > 100 µM | IGROV-1 43.9 µM | KM12 > 100 µM | LOX IMVI > 100 µM | M14 > 100 µM | MCF7 65.9 µM | MDA-MB-231 > 100 µM | MDA-MB-435 > 100 µM | MDA-N > 100 µM | MOLT-4 55.5 µM | NCI-H226 > 100 µM | NCI-H23 > 100 µM | NCI-H460 > 100 µM | NCI/ADR-RES > 100 µM | OVCAR-3 > 100 µM | OVCAR-4 > 100 µM | OVCAR-5 > 100 µM | OVCAR-8 > 100 µM | PC-3 > 100 µM | RPMI-8226 > 100 µM | RXF 393 > 100 µM | SF-268 > 100 µM | SF-295 94.8 µM | SF-539 > 100 µM | SK-MEL-28 > 100 µM | SK-MEL-2 > 100 µM | SK-MEL-5 > 100 µM | SK-OV-3 > 100 µM | SN12C > 100 µM | SNB-19 > 100 µM | SNB-75 38.9 µM | SW-620 > 100 µM | T47D > 100 µM | TK-10 > 100 µM | U-251 > 100 µM | UACC-257 > 100 µM | UACC-62 > 100 µM | UO-31 80.9 µM

Cc1ccc2c(c1)nc1n2C(c2c(F)cccc2F)SC1 (stereo not drawn)
27.9 µM: HCT-15
inactive: 786-0 32 µM | A549 28.8 µM | ACHN 35.2 µM | BT-549 > 10 µM | CAKI-1 27.9 µM | CCRF-CEM 21 µM | COLO 205 32.3 µM | EKVX 30.8 µM | HCC 2998 32.1 µM | HCT-116 28.4 µM | HOP-62 57 µM | HT-29 28.8 µM | Hs-578T 15.7 µM | IGROV-1 50.6 µM | K562 22.3 µM | KM12 34.4 µM | LOX IMVI 33.5 µM | M14 51.1 µM | MCF7 41.7 µM | MDA-MB-231 41 µM | MDA-MB-435 29.6 µM | MDA-N 49.8 µM | MOLT-4 14.1 µM | Malme-3M 18.9 µM | NCI-H226 29 µM | NCI-H23 41.5 µM | NCI-H460 52.8 µM | NCI-H522 31.5 µM | NCI/ADR-RES 31.8 µM | OVCAR-3 55.8 µM | OVCAR-4 > 100 µM | OVCAR-5 57.4 µM | OVCAR-8 39.5 µM | PC-3 20.7 µM | RPMI-8226 34.4 µM | RXF 393 27 µM | SF-268 44.5 µM | SF-295 35.1 µM | SF-539 24.3 µM | SK-MEL-28 41 µM | SK-MEL-2 20 µM | SK-MEL-5 > 10 µM | SK-OV-3 52.6 µM | SN12C 39.4 µM | SNB-19 64.1 µM | SNB-75 8.51 µM | SR 24.4 µM | SW-620 31.9 µM | T47D 41.6 µM | TK-10 81.1 µM | U-251 39.8 µM | UACC-257 56.8 µM | UACC-62 > 10 µM | UO-31 26.9 µM

CN1C(=O)N/C(=C\c2ccc(S(=O)(=O)NN)cc2)C1=O
inactive: 786-0 > 100 µM | A498 > 100 µM | A549 > 100 µM | ACHN > 100 µM | BT-549 > 100 µM | CAKI-1 > 100 µM | CCRF-CEM > 100 µM | COLO 205 > 100 µM | DU-145 > 100 µM | EKVX > 100 µM | HCC 2998 > 100 µM | HCT-116 > 100 µM | HL-60 > 100 µM | HOP-62 > 100 µM | HOP-92 > 100 µM | HT-29 > 100 µM | Hs-578T > 100 µM | IGROV-1 > 100 µM | K562 > 100 µM | KM12 > 100 µM | LOX IMVI > 100 µM | M14 > 100 µM | MCF7 > 100 µM | MDA-MB-231 > 100 µM | MDA-MB-435 > 100 µM | MDA-N > 100 µM | MOLT-4 > 100 µM | Malme-3M > 100 µM | NCI-H226 > 100 µM | NCI-H23 > 100 µM | NCI/ADR-RES > 100 µM | OVCAR-3 > 100 µM | OVCAR-4 > 100 µM | OVCAR-5 > 100 µM | OVCAR-8 > 100 µM | PC-3 > 100 µM | RPMI-8226 > 100 µM | RXF 393 > 100 µM | SF-268 > 100 µM | SF-295 > 100 µM | SK-MEL-28 > 100 µM | SK-MEL-2 > 100 µM | SK-MEL-5 > 100 µM | SK-OV-3 > 100 µM | SN12C > 100 µM | SNB-19 > 100 µM | SNB-75 > 100 µM | SW-620 > 100 µM | T47D > 100 µM | TK-10 > 100 µM | U-251 > 100 µM | UACC-257 > 100 µM | UACC-62 > 100 µM | UO-31 > 100 µM
> 100 µM: HCT-15
